# Results reported in patent US10183030B2, “17α,21-diesters of cortexolone for use in the treatment of tumors” (COSMO TECHNOLOGIES LTD., priority 2014, dated 2019).
# Tests used:
# Type in all cases: cell-based
# LNCaP cells = assay: LNCaP cell viability in the PSA secretion experiment; settings: Homo sapiens, 48 hours, same cells as PSA assay
# Description: (§1) Prostate-specific antigen, or PSA, is a protein produced by cells of the prostate gland. The PSA test measures the level of PSA in a person's blood. The blood level of PSA is often elevated in men with prostate cancer and it used as surrogate marker to test prostate cancer progression in human population. […] After 48 hours incubation with test compounds, supernatants were harvested and tested with an Elisa assay for PSA and same cells were lysed for cell viability assessment.
# [1] = test system: PSA secretion from LNCaP prostate cancer cells; assay: PSA secretion from LNCaP cells (Elisa); settings: Homo sapiens, 48 hours, read-out: IC50, inhibition of PSA secretion
# Description: as §1, with “population. After the observation that CB-03-10 was able to inhibit in vivo the growth of prostate cancer, the capability of the compound to inhibit in vitro PSA secretion from cancer cells was determined.” for “population.”
# MDA-MB-231 TNBC cells = assay: In vitro proliferation / cytotoxic assay, MDA-MB-231
# Description: After 72 hours incubation cell were harvested, lysed and viability determined using the cell titer glow assay for viability.
IC50 (LNCaP cells),IC50 [1],SMILES,"IC50 (MDA-MB-231 TNBC cells; Homo sapiens, MDA-MB-231 (ER−PR−GR++), 72 hours, Table VI, unit inferred, read-out: IC50 on breast cancer cells)","maximum inhibition of viability (MDA-MB-231 TNBC cells; MDA-MB-231, at 100 μM)"
153 µM,612 µM,C[C@]12CCC(=O)C=C1CC[C@@H]1[C@@H]2CC[C@@]2(C)[C@H]1CC[C@]2(O)C(=O)CO [Cortexolone],,
,< 3 µM,CNC(=O)c1ccc(N2C(=S)N(c3ccc(C#N)c(C(F)(F)F)c3)C(=O)C2(C)C)cc1F [Enzalutamide],,
,,"CC#C[C@]1(O)CC[C@H]2[C@@H]3CCC4=CC(=O)CCC4=C3[C@@H](c3ccc(N(C)C)cc3)C[C@@]21C [RU486, Mifepristone]",435 µM,25%
